Patent US9695155B2, “Herbicidal substituted pyrimidinyloxy benzene compounds” (E. I. DU PONT DE NEMOURS AND COMPANY, priority 2013, dated 2017)

Key:
barnyardgrass [1] = experiment: Test C flooded paddy test; type: in vivo, Echinochloa crus-galli; details: Flood, scale 0 to 100 (0 no effect, 100 complete control), 13 to 15 days
Outline: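 Ratings were visual and made relative to untreated controls after 13 to 15 greenhouse days.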

nightshade = experiment: Test E preemergence; type: in vivo, Solanum ptycanthum; details: for Nightshade plant response rating: scale 0 to 100 (0 no effect, 100 complete control); for Plant response rating, Nightshade: scale 0 to 100, 0 no effect, 100 complete control
Outline: (§1)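 Compound in a non-phytotoxic solvent mixture with surfactant was applied preemergence to seeds in silt loam soil, or postemergence to plants 2 to 18 cm tall grown in peat-based potting medium. Plants were kept in a greenhouse for 14 to 21 days, then rated visually against untreated controls on a 0 (no effect) to 100 (complete control) scale.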

[2] = test system: waterhemp_RES2 (ALS & HPPD resistant common waterhemp); experiment: Test E postemergence; type: in vivo, Amaranthus rudis
Outline: as §1

[3] = test system: waterhemp_RES1 (ALS & Triazine resistant common waterhemp); experiment: Test E postemergence; type: in vivo, Amaranthus rudis
Outline: as §1

waterhemp [4] = experiment: Test E postemergence; type: in vivo, Amaranthus rudis
Outline: as §1

barnyardgrass [5] = experiment: Test E preemergence; type: in vivo, Echinochloa crus-galli; details: preemergence; for Barnyardgrass plant response rating: scale 0 to 100 (0 no effect, 100 complete control); for Plant response rating, Barnyardgrass: scale 0 to 100, 0 no effect, 100 complete control
Outline: as §1

large (Lg) crabgrass = experiment: Test E preemergence; type: in vivo, Digitaria sanguinalis; details: for Crabgrass, Large plant response rating: scale 0 to 100 (0 no effect, 100 complete control); for Plant response rating, Crabgrass, Large: scale 0 to 100, 0 no effect, 100 complete control
Outline: as §1

ragweed = experiment: Test E preemergence; type: in vivo, Ambrosia elatior; details: for Ragweed plant response rating: scale 0 to 100 (0 no effect, 100 complete control); for Plant response rating, Ragweed: scale 0 to 100, 0 no effect, 100 complete control
Outline: as §1

lambsquarters = experiment: Test E preemergence; type: in vivo, Chenopodium album; details: for Lambsquarters plant response rating: scale 0 to 100 (0 no effect, 100 complete control); for Plant response rating, Lambsquarters: scale 0 to 100, 0 no effect, 100 complete control
Outline: as §1

kochia = experiment: Test E preemergence; type: in vivo, Kochia scoparia; details: for Kochia plant response rating: scale 0 to 100 (0 no effect, 100 complete control); for Plant response rating, Kochia: scale 0 to 100, 0 no effect, 100 complete control
Outline: as §1

arrowleaf sida = experiment: Test E postemergence; type: in vivo, Sida rhombifolia
Outline: as §1

hairy beggarticks = experiment: Test E postemergence; type: in vivo, Bidens pilosa
Outline: as §1

Italian ryegrass = experiment: Test E preemergence; type: in vivo, Lolium multiflorum; details: for Ryegrass, Italian plant response rating: scale 0 to 100 (0 no effect, 100 complete control); for Plant response rating, Ryegrass, Italian: scale 0 to 100, 0 no effect, 100 complete control
Outline: as §1

waterhemp [6] = experiment: Test E preemergence; type: in vivo, Amaranthus rudis; details: for Waterhemp plant response rating: scale 0 to 100 (0 no effect, 100 complete control); for Plant response rating, Waterhemp: scale 0 to 100, 0 no effect, 100 complete control
Outline: as §1

Brazilian crabgrass = experiment: Test E preemergence; type: in vivo, Digitaria horizontalis; details: for Crabgrass, Brazil plant response rating: scale 0 to 100 (0 no effect, 100 complete control); for Plant response rating, Crabgrass, Brazil: scale 0 to 100, 0 no effect, 100 complete control
Outline: as §1

sandbur [7] = experiment: Test E postemergence; type: in vivo, Cenchrus echinatus
Outline: as §1

sandbur [8] = experiment: Test E preemergence; type: in vivo, Cenchrus echinatus; details: for Sandbur plant response rating: scale 0 to 100 (0 no effect, 100 complete control); for Plant response rating, Sandbur: scale 0 to 100, 0 no effect, 100 complete control
Outline: as §1

[9] = Postemergence, 31 g ai/ha, scale 0 to 100
[10] = Postemergence, 62 g ai/ha, scale 0 to 100
[11] = Postemergence, 125 g ai/ha, scale 0 to 100
[12] = Postemergence, 250 g ai/ha, scale 0 to 100
[13] = postemergence, 16 g ai/ha, scale 0 to 100, 0 no effect, 100 complete control

In the case of N#Cc1cnn(-c2c(C#N)cccc2Oc2ncc(Cl)cn2)c1 [Compound 200], the “Plant response rating, Barnyardgrass” value (barnyardgrass [1]; 31 g ai/ha) is reported as 0, the “Plant response rating, Barnyardgrass” value (barnyardgrass [1]; 62 g ai/ha) is reported as 0 and the “Plant response rating, Barnyardgrass” value (barnyardgrass [1]; 125 g ai/ha) is reported as 0. For the same compound, the “Plant response rating, Barnyardgrass” value (barnyardgrass [1]; 250 g ai/ha) was 25, the “Nightshade plant response rating” value (nightshade; 31 g ai/ha) was 10 and the “Nightshade plant response rating” value (nightshade; 62 g ai/ha) was 85. For the same compound, the “Plant response rating, Nightshade” value (nightshade; 125 g ai/ha) was 100, the “Plant response rating, Nightshade” value (nightshade; 250 g ai/ha) was 100 and the “Plant response rating, Waterhemp_RES2” value [2, 9] was 90. The “Plant response rating, Waterhemp_RES2” value [2, 10] was 90, the “Plant response rating, Waterhemp_RES2” value [2, 11] was 100 and the “Plant response rating, Waterhemp_RES2” value [2, 12] was 100. The “Plant response rating, Waterhemp_RES2” value [2, 13] was 90, the “Plant response rating, Waterhemp_RES1” value [3, 9] was 80 and the “Plant response rating, Waterhemp_RES1” value [3, 10] was 90. For the same compound, the “Plant response rating, Waterhemp_RES1” value [3, 11] was 100, the “Plant response rating, Waterhemp_RES1” value [3, 12] was 100 and the “Plant response rating, Waterhemp_RES1” value [3, 13] was 70. For the same compound, the “Plant response rating, Waterhemp” value (waterhemp [4]; [9]) was 90, the “Plant response rating, Waterhemp” value (waterhemp [4]; [10]) was 95 and the “Plant response rating, Waterhemp” value (waterhemp [4]; [11]) was 95. The “Plant response rating, Waterhemp” value (waterhemp [4]; [12]) was 100, the “Plant response rating, Waterhemp” value (waterhemp [4]; [13]) was 80 and the “Barnyardgrass plant response rating” value (barnyardgrass [5]; 16 g ai/ha) was 0. For the same compound, the “Barnyardgrass plant response rating” value (barnyardgrass [5]; 31 g ai/ha) was 0, the “Barnyardgrass plant response rating” value (barnyardgrass [5]; 62 g ai/ha) was 10 and the “Plant response rating, Barnyardgrass” value (barnyardgrass [5]; 125 g ai/ha) was 60. The “Plant response rating, Barnyardgrass” value (barnyardgrass [5]; 250 g ai/ha) was 95, the “Crabgrass, Large plant response rating” value (large (Lg) crabgrass; 16 g ai/ha) was 5 and the “Crabgrass, Large plant response rating” value (large (Lg) crabgrass; 31 g ai/ha) was 35. For the same compound, the “Crabgrass, Large plant response rating” value (large (Lg) crabgrass; 62 g ai/ha) was 65, the “Plant response rating, Crabgrass, Large” value (large (Lg) crabgrass; 125 g ai/ha) was 80 and the “Plant response rating, Crabgrass, Large” value (large (Lg) crabgrass; 250 g ai/ha) was 100. The “Ragweed plant response rating” value (ragweed; 31 g ai/ha) was 0, the “Ragweed plant response rating” value (ragweed; 62 g ai/ha) was 80 and the “Plant response rating, Ragweed” value (ragweed; 125 g ai/ha) was 80. The “Plant response rating, Ragweed” value (ragweed; 250 g ai/ha) was 95, the “Lambsquarters plant response rating” value (lambsquarters; 31 g ai/ha) was 65 and the “Lambsquarters plant response rating” value (lambsquarters; 62 g ai/ha) was 80. The “Plant response rating, Lambsquarters” value (lambsquarters; 125 g ai/ha) was 98, the “Plant response rating, Lambsquarters” value (lambsquarters; 250 g ai/ha) was 100 and the “Kochia plant response rating” value (kochia; 31 g ai/ha) was 60. For the same compound, the “Kochia plant response rating” value (kochia; 62 g ai/ha) was 95, the “Plant response rating, Kochia” value (kochia; 125 g ai/ha) was 100 and the “Plant response rating, Kochia” value (kochia; 250 g ai/ha) was 100. For the same compound, the “Plant response rating, Arrowleaf Sida” value (arrowleaf sida; [9]) was 80, the “Plant response rating, Arrowleaf Sida” value (arrowleaf sida; [10]) was 80 and the “Plant response rating, Arrowleaf Sida” value (arrowleaf sida; [11]) was 90. The “Plant response rating, Arrowleaf Sida” value (arrowleaf sida; [12]) was 98, the “Plant response rating, Arrowleaf Sida” value (arrowleaf sida; [13]) was 60 and the “Plant response rating, Beggarticks” value (hairy beggarticks; [9]) was 60. The “Plant response rating, Beggarticks” value (hairy beggarticks; [10]) was 70, the “Plant response rating, Beggarticks” value (hairy beggarticks; [11]) was 90 and the “Plant response rating, Beggarticks” value (hairy beggarticks; [12]) was 95. The “Plant response rating, Beggarticks” value (hairy beggarticks; [13]) was 50, the “Ryegrass, Italian plant response rating” value (Italian ryegrass; 31 g ai/ha) was 0 and the “Ryegrass, Italian plant response rating” value (Italian ryegrass; 62 g ai/ha) was 20. For the same compound, the “Plant response rating, Ryegrass, Italian” value (Italian ryegrass; 125 g ai/ha) was 60, the “Plant response rating, Ryegrass, Italian” value (Italian ryegrass; 250 g ai/ha) was 80 and the “Waterhemp plant response rating” value (waterhemp [6]; 31 g ai/ha) was 100. For the same compound, the “Waterhemp plant response rating” value (waterhemp [6]; 62 g ai/ha) was 100, the “Plant response rating, Waterhemp” value (waterhemp [6]; 125 g ai/ha) was 100 and the “Plant response rating, Waterhemp” value (waterhemp [6]; 250 g ai/ha) was 100. The “Crabgrass, Brazil plant response rating” value (Brazilian crabgrass; 16 g ai/ha) was 30, the “Crabgrass, Brazil plant response rating” value (Brazilian crabgrass; 31 g ai/ha) was 85 and the “Crabgrass, Brazil plant response rating” value (Brazilian crabgrass; 62 g ai/ha) was 100. The “Plant response rating, Crabgrass, Brazil” value (Brazilian crabgrass; 125 g ai/ha) was 100, the “Plant response rating, Crabgrass, Brazil” value (Brazilian crabgrass; 250 g ai/ha) was 100 and the “Plant response rating, Sandbur” value (sandbur [7]; [9]) was 0. For the same compound, the “Plant response rating, Sandbur” value (sandbur [7]; [10]) was 0, the “Plant response rating, Sandbur” value (sandbur [7]; [11]) was 0 and the “Plant response rating, Sandbur” value (sandbur [7]; [12]) was 10. For the same compound, the “Plant response rating, Sandbur” value (sandbur [7]; [13]) was 0, the “Sandbur plant response rating” value (sandbur [8]; 31 g ai/ha) was 0 and the “Sandbur plant response rating” value (sandbur [8]; 62 g ai/ha) was 5. For the same compound, the “Plant response rating, Sandbur” value (sandbur [8]; 125 g ai/ha) was 40 and the “Plant response rating, Sandbur” value (sandbur [8]; 250 g ai/ha) was 70.
